Source: patent US10242153B2, “Method for determining the risk profile of neoplastic tissue” (NOVAZOI THERANOSTICS, priority 2014, dated 2019)

How the values were obtained:
MDA-MB-231 (231) cells = assay: Peak subG1 fraction by flow cytometry (propidium iodide) after declustering drugs, 231 cells; type: cell-based, human
Experimental: (§1) To evaluate the impact of putative declustering drugs on cell cycle progression and hypodiploidy (<2N DNA content, which may indicate apoptotic cells), MDA-MB-231 (231), PC3, and HeLa cells were treated with different concentrations of declustering drugs, stained with propidium iodide, labeled with anti-MPM2 antibody, and then assessed by flow cytometry at multiple time points over 48 hr. […] The duration, highest degree, and rapidity of onset of MA varied between drugs, drug concentrations, and cell lines (data not shown). In general, the maximum MA achieved was less pronounced in Nos- and PJ-treated cells. Drug-induced onset of MA was corroborated by substantial increases in cyclin B1 levels in all cell lines. For most cases, prolonged MA (˜24 hr in duration) was followed by a substantial increase in the subG1 population fraction. […] Instances where the subGl fraction was elevated without cleaved caspase-3 may either represent caspase-independent cell death or the presence of hypodiploid cells whose fate is unclear. In general, no consistent associations between the extent, duration, or timing of MA within drugs or across cell lines was found.

N1E-115 cells [1] = assay: Vinculin localization in serum-starved N1E-115 cells; type: cell-based, murine; details: serum-starved (SS) cells
From the text: Vinculin stabilizes cell-substrate contacts in neuronal cells undergoing neuritogenesis, while activation by actin-binding proteins mobilizes vinculin to focal adhesions. To determine the localization of vinculin in the neurite extensions and the effect of declustering agents on its localization, N1E-115 cells were immunostained cells for vinculin and stained F-actin using rhodamine-phalloidin.

[2] = tested on: adult human dermal fibroblasts (HDFs); assay: Centrosome amplification (CA) by microscopy, HDFs; type: cell-based; details: for peak CA: interphase HDFs
Experimental: (§2) Consequently, CA was assessed in cultures treated with different concentrations of declustering drugs for 6, 12, 18, or 24 h and untreated controls via microscopy. Centrosomes were identified by γ-tubulin and centrin-2 colocalization at discrete foci.
(§3) To determine whether the CA-inducing activity of declustering drugs is restricted to cancer cells, two non-malignant cell lines, mammary fibrocystic (MCF10A) cells and adult human dermal fibroblasts (HDFs) were treated with these drugs. […] In comparison, 10 and 25 µM RBN increased peak CA over controls in interphase cells (p<0.001 and p=0.001, respectively), with the lower concentration dramatically augmenting peak CA to 56% of cells versus 15% for the higher dose (FIG. 13, panel B).

PC3 cells = assay: Peak subG1 fraction by flow cytometry after declustering drugs, PC3 cells; type: cell-based
Experimental: as §1

[3] = tested on: mammary fibrocystic (MCF10A) cells; assay: Peak subG1 fraction after declustering drugs, non-malignant MCF10A cells; type: cell-based; details: for peak subG1 percent compared to controls: MCF10A cells; for Peak subG1 percents over 48 h: MCF10A
Experimental: as §1, §3
Importantly, a therapeutic window exists for several of these agents at the concentrations and in the cell lines tested compared to cancer cells.

HeLa cells [4] = assay: Centrosome amplification (CA) by microscopy, HeLa cells; type: cell-based; details: for cells having CA (maximum extent) / increase in CA over controls: mitotic HeLa cells
Experimental: Consequently, CA was assessed in cultures treated with different concentrations of declustering drugs for 6, 12, 18, or 24 h and untreated controls via microscopy. Centrosomes were identified by γ-tubulin and centrin-2 colocalization at discrete foci. […] The peak percent CA detected over 24 h is shown in FIG. 13 (only statistically significant (P<0.05) increases over control values are represented in the Figures). To better understand the “potency” of drug-induced CA with time, the average fold change in CA over controls over 24 h was assessed (FIG. 12, panel A), whereby the extent of CA across time points (i.e., 6, 12, 18, and 24 hr) was averaged and then divided by the extent of CA in control (i.e., 0 hr). All of the drugs at least doubled the peak extent of CA in all cell lines tested (FIG. 12, panel A), although the final extent of CA could be small or large in magnitude depending on the initial centrosomal burden as shown in FIG. 11. […] The peak extent in interphase HeLa cells was somewhat less at 30.7% and 48.1% for 10 and 25 μM RBN, respectively (FIG. 13, panel A). For Nos and BN, there was no major difference in CA levels in interphase versus mitotic cells.

MCF10A cells = assay: Centrosome amplification (CA) by microscopy, MCF10A cells; type: cell-based
Experimental: as §2, §3

[5] = tested on: adult human dermal fibroblasts (HDFs); assay: Peak subG1 fraction after declustering drugs, non-malignant HDFs; type: cell-based; details: for Peak subG1 percents over 48 h: HDF; for death in cancer cell lines vs. HDFs: both concentrations
Experimental: as §1, §3
In HDFs, all the drugs tested increased peak subG1 over controls in a significant fashion (p<0.01 for all) (Table 2). […] Thus, it appears that there may be clinically relevant therapeutic windows for these drugs depending on the type of cancer and the drug dosage.

N1E-115 cells [6] = assay: Ki67 and cleaved caspase-3 immunostaining of serum-starved N1E-115 cells; type: cell-based, murine; details: RedBr-Nos 5 μM, Griseofulvin 10 μM, PJ-34 10 μM
HeLa cells [7] = assay: Peak subG1 fraction by flow cytometry after declustering drugs, HeLa cells; type: cell-based
Experimental: as §1

N1E-115 cells [8] = assay: Interphase declustering index (DI) in N1E-115 cells; type: cell-based, murine; details: 6-h treatment, 25 interphase cells, drugs at their respective IC50 concentrations
Experimental: To evaluate their effect on interphase clustering, N1E-115 cells were treated with these drugs at their respective IC50 concentrations for 0, 3, 6 and 9 h and co-immunostained for γ-tubulin and α-tubulin to evaluate centrosomal spread and microtubule nucleation status, respectively.
Cell cycle phases were further evaluated via lamin A/C immunostaining to distinguish interphase declustering events from prophase centrosomal spread. To quantitate the spread of the interphase centrosomal cluster, a 3D reconstruction of z-stack images of 25 randomly-selected interphase cells from the 6-h treatment group of each drug were generated. By defining an ROI (region of interest) around the interphase centrosomal cluster, the volume of the cluster spread was calculated using Volocity software. Likewise, defining an ROI using the cell periphery provided the cell volume.

N1E-115 cells [9] = assay: Golgi (GM130) and γ-tubulin co-immunostaining of drug-treated N1E-115 cells; type: cell-based, murine; details: data not shown
From the text: The Golgi, which is primarily responsible for posttranslational modification and protein sorting, also functions as a microtubule-organizing center (MTOC). It has been hypothesized that supernumerary centrosomes may better organize the Golgi to enhance directional cell migration. To investigate what happens to the Golgi upon declustering drug-induced dispersal of the interphase centrosomal cluster, drug-treated N1E-115 cells were co-immunostained with GM130 (a cis-Golgi matrix protein crucial for maintaining its structure) and γ-tubulin.

[10] = interphase HeLa cells, 25 μM, over 24 h

Compound	Peak subG1 percents over 48 h (MDA-MB-231 (231) cells; 10 μM) [%]	Peak subG1 percents over 48 h (MDA-MB-231 (231) cells; 25 μM) [%]	maximum (peak) subG1 fraction relative to control (MDA-MB-231 (231) cells; 25 μM) [× control]	vinculin localization and focal adhesion points (N1E-115 cells [1])	Peak subG1 percents over 48 h (PC3 cells; 10 μM) [%]	Peak subG1 percents over 48 h (PC3 cells; 25 μM) [%]	peak subG1 percent compared to controls [3]	Peak subG1 percents over 48 h ([3]; 10 μM) [%]	Peak subG1 percents over 48 h ([3]; 25 μM) [%]	peak (final) extent of CA (HeLa cells [4]; [10]) [%]	Peak subG1 percents over 48 h ([5]; 10 μM) [%]	Peak subG1 percents over 48 h ([5]; 25 μM) [%]	death in cancer cell lines vs. HDFs [5]	Ki67-positive cells (N1E-115 cells [6])	Peak subG1 percents over 48 h (HeLa cells [7]; 10 μM) [%]	maximum (peak) subG1 fraction relative to control (HeLa cells [7]; 10 μM) [× control]	Peak subG1 percents over 48 h (HeLa cells [7]; 25 μM) [%]	interphase declustering index (DI): ratio of average cluster volume to average cell volume (N1E-115 cells [8])	fragmentation of the interphase Golgi complex (N1E-115 cells [9])	further results
reduced-9-bromonoscapine [RBN]	47.0	80.8	25	complete internalization of vinculin and complete loss of focal adhesion points	80.7	73.0	did increase peak SubG1	36.4	44.0	48.1	35.9	39.9	more death in 231 cells	high proportion of Ki67-positive cells	54.1	9	75.6	0.36	most robust effect	peak CA ([2]; 10 μM): 56 % of cells; peak CA ([2]; 25 μM): 15%; extent of CA ([2]; mitotic HDFs, 10 μM): 10%; extent of CA versus controls ([2]; mitotic HDFs, 25 μM): Only 10 but not 25 μM RBN increased the extent of CA in mitotic cells; maximum (peak) subG1 fraction relative to control (PC3 cells; 10 μM): 8 × control; peak subG1 / toxicity in MCF10A cells versus cancer cell lines ([3]; 10 μM): smaller peak subG1 in MCF10A cells as compared to 231 cells; susceptibility / toxicity in MCF10A cells versus cancer cell lines ([3]; 25 μM): much greater increases in toxicity to 231 and PC3 cells; peak extent of CA (HeLa cells [4]; interphase HeLa cells, 10 μM, over 24 h): 30.7%; cells having CA (maximum extent) (HeLa cells [4]; 10 μM): 78%; increase in CA over controls (HeLa cells [4]; 10 μM): approximately 40 fold; cells having CA (maximum extent) (HeLa cells [4]; 25 μM): 42%; increase in CA over controls (HeLa cells [4]; 25 μM): ~20 fold; CA / peak extent of CA versus control levels (MCF10A cells; interphase and mitotic MCF10A cells, both concentrations (10 and 25 μM), over 24 h): significantly increased the peak extent of CA
CN(C)CC(=O)Nc1ccc2[nH]c(=O)c3ccccc3c2c1 [PJ, PJ-34]	37.0	65.0	10.4	less severe	62.4	48.4	did not cause a significant increase	6.9	9.1	< 20	13.6	28.2	more death in all cancer cell lines vs. HDFs	high proportion of Ki67-positive cells	48.5	4.8	64.4	0.14	interphase Golgi complex fragmented	extent of CA over controls ([2]; HDFs, any of the concentrations or time points assessed): no significant impact on CA; increase in peak CA extent over controls (HeLa cells [4]; interphase HeLa cells, 25 μM): ~20 fold; peak extent of CA (MCF10A cells; interphase MCF10A cells, 10 μM): 8 % of cells; peak extent of CA versus controls (MCF10A cells; interphase and mitotic MCF10A cells, 25 μM): increased the peak extent of CA in interphase and mitotic cells
